Measurements: patent publication US10189813B2, “Formylated N-heterocyclic derivatives as FGFR4 inhibitors” (NOVARTIS AG, priority 2015, dated 2019)
Where two headings read alike, the source gives them in different places.

Key:
[1] = target: T1, FGFR4 (GST-FGFR4(388-802)) (Homo sapiens, UniProt P22455); assay: In-vitro biochemical kinase assay for FGFR4 (Caliper mobility shift); details: 60 minutes at 30° C.
T1 construct: GST-FGFR4(388-802); GST (N); made in house; host or cells: insect cells
Experimental: In-Vitro Biochemical Kinase Assays for FGFR4
All assays were performed in 384 well microtiter plates. Each assay plate contained 8-point serial dilutions for 40 test compounds, as well as four 8-point serial dilutions of staurosporine as reference compound, plus 16 high and 16 low controls.
(§1) Liquid handling and incubation steps were done on an Innovadyne Nanodrop Express equipped with a robotic arm (Thermo CatX, Caliper Twister II) and an incubator (Liconic STX40, Thermo Cytomat 2C450). The assay plates were prepared by addition of 50 nI per well of compound solution in 90% DMSO. […] Kinase reactions were incubated at 30° C. for 60 minutes and subsequently terminated by addition of 16 μl per well of stop solution (100 mM HEPES pH 7.5, 5% DMSO, 0.1% Caliper coating reagent, 10 mM EDTA, and 0.015% Brij35). Plates with terminated kinase reactions were transferred to the Caliper LC3000 workstations for reading. Phosphorylated and unphosphorylated peptides were separated using the Caliper microfluidic mobility shift technology. Briefly, samples from terminated kinase reactions were applied to the chip. Analytes are transported through the chip by constant buffer flow and the migration of the substrate peptide is monitored by the fluorescence signal of its label. Phosphorylated peptide (product) and unphosphorylated peptide (substrate) are separated in an electric field by their charge/mass ratio. Kinase activities were calculated from the amounts of formed phospho-peptide. IC50 values were determined from percent inhibition values at different compound concentrations by non-linear regression analysis.
Preparation of Compound Dilutions
Test compounds were dissolved in DMSO (10 mM) and transferred into 1.4 mL flat bottom or V-shaped Matrix tubes carrying a unique 2D matrix. The stock solutions were stored at […] if not used immediately. For the test procedure the vials were defrosted and identified by a scanner whereby a working sheet was generated that guided the subsequent working steps.
Compound dilutions were made in 96 well plates. This format enabled the assay of maximally 40 individual test compounds at 8 concentrations (single points) including 4 reference compounds. The dilution protocol included the production of “pre-dilution plates”, “master plates” and “assay plates”.
96 polypropylene well plates were used as pre-dilution plates. A total of 4 pre-dilution plates were prepared including 10 test compounds each on the plate positions A1-A10, one standard compound at A11 and one DMSO control at A12. All dilution steps were done on a HamiltonSTAR robot.
These plates were used directly for the assay which was performed in a total volume of 9.05 μL.

[2] = target: BaF3-Tel-FGFR4 cells (TEL fused to cytoplasmic domain of FGFR4) (Homo sapiens, UniProt P22455); assay: In vitro cellular kinase assay for FGFR4 (BaF3-Tel-FGFR4, MSD capture ELISA of tyrosine phosphorylation); details: 1 hour incubation
Chain of BaF3-Tel-FGFR4 cells (TEL fused to cytoplasmic domain of FGFR4) (P22455 with tags, fused parts or gaps): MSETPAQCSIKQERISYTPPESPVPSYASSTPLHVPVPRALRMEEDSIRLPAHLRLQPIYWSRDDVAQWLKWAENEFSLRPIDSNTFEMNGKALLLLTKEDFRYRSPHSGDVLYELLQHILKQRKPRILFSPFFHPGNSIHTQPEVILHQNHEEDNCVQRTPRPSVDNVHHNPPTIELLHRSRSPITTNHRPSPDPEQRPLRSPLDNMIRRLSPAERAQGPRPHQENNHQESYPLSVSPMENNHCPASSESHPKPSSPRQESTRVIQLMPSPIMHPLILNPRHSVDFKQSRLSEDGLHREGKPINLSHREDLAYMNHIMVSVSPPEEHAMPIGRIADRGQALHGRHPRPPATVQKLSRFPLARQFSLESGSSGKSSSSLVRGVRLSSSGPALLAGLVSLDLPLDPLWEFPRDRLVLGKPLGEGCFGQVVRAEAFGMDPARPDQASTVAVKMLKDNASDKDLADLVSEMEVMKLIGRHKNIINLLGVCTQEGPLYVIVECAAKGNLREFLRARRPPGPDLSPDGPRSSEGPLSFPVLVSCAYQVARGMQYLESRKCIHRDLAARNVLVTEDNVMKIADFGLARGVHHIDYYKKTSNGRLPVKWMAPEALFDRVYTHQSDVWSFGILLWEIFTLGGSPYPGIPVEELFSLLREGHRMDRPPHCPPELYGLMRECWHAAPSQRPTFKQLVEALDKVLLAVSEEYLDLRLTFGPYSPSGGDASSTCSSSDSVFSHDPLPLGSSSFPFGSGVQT

[3] = system: HuH-7 hepatocellular carcinoma cells; assay: CellTiter Glo (CTG) proliferation/viability assay; type: cell-based; details: HuH-7 cells, 3 days, half-maximal growth inhibition (GI50), read-out: HUH7 proliferation CTG
Experimental: CellTiter Glo (CTG) Assay:
The functional effect of compounds on cell proliferation is assessed using HuH-7 hepatocellular carcinoma cells obtained from the Japanese Collection of Research Bioresources Cell Bank (Cat# JCRB0403) and cultured in the vendor-recommended medium (DMEM high glucose (Amimed Cat#1-26F01-I), 10% foetal calf serum (Invitrogen Cat#16140-071), 1 mM sodium pyruvate (Amimed Cat#5-60F00-H), 1× Penicillin/Streptomycin (Amimed Cat#4-01F00-H)) at 37° C. in a humidified 5% CO2 incubator. Compound-mediated suppression of cell proliferation/viability is assessed by quantification of cellular ATP levels using the CellTiter-Glo (CTG) reagent (Promega, Cat# G7573). Briefly, cells are seeded at 3′000 cells/well/80 μl fresh medium into tissue-culture-treated 96-well plates (Costar Cat#3904), followed by addition of 20 μl medium containing compound dilutions at 5-fold their final intended concentration. Dose-response effects are assessed by 3-fold serial dilutions of the test compound, starting at 10 μM. Following incubation of the cells for 3 days at 37° C. and 5% CO2, the effect of inhibitors on cell viability is quantified following addition of 50 μl CTG and luminescence measurement (integration time: 500 ms) as per vendor manual, using a correspondingly equipped multi-mode plate reader (M200Pro, TECAN, Switzerland). For data analysis, the assay background value determined in wells containing medium, but no cells, is subtracted from all data points. To enable differentiation of cytotoxic from cytostatic compounds, the number of viable cells is assessed relative to that observed at the time of compound addition using a separate cell plate (day 0). The effect of a particular test compound concentration on cell proliferation/viability is expressed as percentage of the background- and day 0-corrected luminescence reading obtained for cells treated with vehicle only (DMSO, 0.1% f.c.), which is set as 100%, whereas the luminescence reading for wells containing medium only, but no cells, is set as −100%. Compound concentrations leading to half-maximal growth inhibition (GI50) are determined using standard four parameter curve fitting (XLfit 5.2., IDBS, UK).

[4] = target: T2, FGFR1 (407-822) (Homo sapiens, UniProt P11362); assay: In vitro biochemical assay for FGFR1
T2 construct: FGFR1 (407-822)
T2 sequence (P11362 407-822): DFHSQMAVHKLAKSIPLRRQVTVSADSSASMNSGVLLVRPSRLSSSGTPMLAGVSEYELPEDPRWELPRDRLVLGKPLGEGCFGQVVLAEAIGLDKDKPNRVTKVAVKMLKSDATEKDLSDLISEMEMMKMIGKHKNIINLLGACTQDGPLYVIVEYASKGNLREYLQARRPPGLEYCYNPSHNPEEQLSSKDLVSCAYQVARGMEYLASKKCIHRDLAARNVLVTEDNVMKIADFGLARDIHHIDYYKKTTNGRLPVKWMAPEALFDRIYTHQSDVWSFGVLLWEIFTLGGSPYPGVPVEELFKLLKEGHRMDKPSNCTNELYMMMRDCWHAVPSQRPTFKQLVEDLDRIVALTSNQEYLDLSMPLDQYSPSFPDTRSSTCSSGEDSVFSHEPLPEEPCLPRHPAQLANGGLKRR
Experimental: as §1
(§2) In vitro biochemical assays for FGFR1 (407-822), FGFR2 (406-821) and FGFR3 (411-806) were conducted in a similar manner to the in vitro biochemical assay for FGFR4 described above, using the indicated portions of the kinase domains. The following examples all produced IC50 values >10000 nM in the biochemical FGFR1, FGFR2 and FGFR3 assays: 2, 3, 4, 11, 13, 16, 17, 18, 20, 28, 30.

[5] = target: T3, FGFR2 (406-821) (Homo sapiens, UniProt P21802); assay: In vitro biochemical assay for FGFR2
T3 construct: FGFR2 (406-821)
T3 sequence (P21802 406-821): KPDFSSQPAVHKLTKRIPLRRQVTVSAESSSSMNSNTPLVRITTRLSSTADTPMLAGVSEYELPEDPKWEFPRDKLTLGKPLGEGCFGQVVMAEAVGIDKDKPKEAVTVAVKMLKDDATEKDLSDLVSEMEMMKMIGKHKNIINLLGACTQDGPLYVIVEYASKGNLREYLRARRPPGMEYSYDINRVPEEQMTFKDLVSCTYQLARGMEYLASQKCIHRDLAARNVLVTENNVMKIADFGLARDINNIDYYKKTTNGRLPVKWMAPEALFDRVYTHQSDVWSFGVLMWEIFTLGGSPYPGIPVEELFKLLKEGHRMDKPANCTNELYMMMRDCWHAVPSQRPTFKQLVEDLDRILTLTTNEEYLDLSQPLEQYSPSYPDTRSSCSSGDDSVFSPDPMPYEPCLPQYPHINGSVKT
Experimental: as §1, §2

[6] = target: T4, FGFR3 (411-806) (Homo sapiens, UniProt P22607); assay: In vitro biochemical assay for FGFR3
T4 construct: FGFR3 (411-806)
T4 sequence (P22607 411-806): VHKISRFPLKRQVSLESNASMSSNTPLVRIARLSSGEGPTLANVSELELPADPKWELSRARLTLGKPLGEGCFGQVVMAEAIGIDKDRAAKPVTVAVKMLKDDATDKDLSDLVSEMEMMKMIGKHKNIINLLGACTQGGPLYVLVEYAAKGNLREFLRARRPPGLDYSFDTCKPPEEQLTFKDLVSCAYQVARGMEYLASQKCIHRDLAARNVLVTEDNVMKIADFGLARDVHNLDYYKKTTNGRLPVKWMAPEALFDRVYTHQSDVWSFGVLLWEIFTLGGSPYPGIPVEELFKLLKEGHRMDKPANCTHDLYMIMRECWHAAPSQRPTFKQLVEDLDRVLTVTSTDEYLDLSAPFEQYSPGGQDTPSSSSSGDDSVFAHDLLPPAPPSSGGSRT
Experimental: as §1, §2

T1 sequence (P22455 388-802): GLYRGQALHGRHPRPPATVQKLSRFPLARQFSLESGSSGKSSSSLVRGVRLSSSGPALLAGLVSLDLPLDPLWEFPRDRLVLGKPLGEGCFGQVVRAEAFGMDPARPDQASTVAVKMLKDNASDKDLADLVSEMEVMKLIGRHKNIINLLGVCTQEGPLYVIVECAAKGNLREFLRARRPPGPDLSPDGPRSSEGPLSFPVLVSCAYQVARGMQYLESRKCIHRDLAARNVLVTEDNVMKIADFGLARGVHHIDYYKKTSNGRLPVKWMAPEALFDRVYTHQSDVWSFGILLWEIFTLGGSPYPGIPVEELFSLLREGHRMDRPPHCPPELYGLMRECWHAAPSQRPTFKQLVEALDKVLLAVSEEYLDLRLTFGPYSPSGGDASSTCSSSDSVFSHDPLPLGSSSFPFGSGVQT

`CN(C(=O)Nc1ccc(C#N)cn1)c1ccc(CN2CCCC2=O)c(C=O)n1` [Example 19, 3-(5-cyanopyridin-2-yl)-1-(6-formyl-5-((2-oxopyrrolidin-1-yl)methyl)pyridin-2-yl)-1-methylurea] gave an IC50 [1] of 0.078 µM.
With `COCCNc1cc(NC(=O)N(C[C@@H]2CCOC2)c2cccc(C=O)n2)ncc1C#N` (single isomer, unassigned) [Example 6] the IC50 [1] was 0.0047 µM and the IC50 [2] was 0.14 µM.
Molecule `CC(C)Oc1cc(NC(=O)N(C)c2ccc(C(=O)O)c(C=O)n2)ncc1C#N` [Example 8, 6-(3-(5-cyano-4-isopropoxypyridin-2-yl)-1-methylureido)-2-formylnicotinic acid] has an IC50 [1] of 0.0016 µM and an IC50 [2] of 0.737 µM.
Molecule `CC(C)Oc1cc(NC(=O)N(C)c2ccc(CN3CCN(C)CC3=O)c(C=O)n2)ncc1C#N` [Example 21, 3-(5-cyano-4-isopropoxypyridin-2-yl)-1-(6-formyl-5-((4-methyl-2-oxopiperazin-1-yl)methyl)pyridin-2-yl)-1-methylurea] has an IC50 [1] of 0.0048 µM, an IC50 ([3]; Homo sapiens, Huh-7, 72 h) of 0.878 µM and an IC50 [2] of 0.0069 µM.
`COCCNc1cc(NC(=O)N(CC2CCOC2)c2ccc(CO)c(C=O)n2)ncc1C#N` (racemic) [Example 5, 3-(5-cyano-4-((2-methoxyethyl)amino)pyridin-2-yl)-1-(6-formyl-5-(hydroxymethyl)pyridin-2-yl)-1-((tetrahydrofuran-3-yl)methyl)urea] gave an IC50 [1] of 0.066 µM and an IC50 [2] of 0.234 µM.
With `CC(C)Oc1cc(NC(=O)N(C)c2ccc(CN3CCCC3)c(C=O)n2)ncc1C#N` [Example 29, 3-(5-cyano-4-isopropoxypyridin-2-yl)-1-(6-formyl-5-(pyrrolidin-1-ylmethyl)pyridin-2-yl)-1-methylurea] the IC50 [1] was 0.25 µM, the IC50 ([3]; Homo sapiens, Huh-7, 72 h) was > 3 µM and the IC50 [2] was > 3 µM.
In the case of `CC(C)Oc1cc(NC(=O)N(C)c2ccc(-c3cnn(C)c3)c(C=O)n2)ncc1C#N` [Example 25, 3-(5-cyano-4-isopropoxypyridin-2-yl)-1-(6-formyl-5-(1-methyl-1H-pyrazol-4-yl)pyridin-2-yl)-1-methylurea], the IC50 [1] is reported as 0.0063 µM.
For `CCN(C(=O)Nc1cc(NC(C)C)c(C#N)cn1)c1ccc(-c2cnn(C)c2)c(C=O)n1` [Example 11, 3-(5-cyano-4-(isopropylamino)pyridin-2-yl)-1-ethyl-1-(6-formyl-5-(1-methyl-1H-pyrazol-4-yl)pyridin-2-yl)urea], the IC50 [1] was 0.0056 µM, the IC50 [4] was > 10 µM and the IC50 [5] was > 10 µM. The IC50 [6] was > 10 µM and the IC50 [2] was 0.017 µM.
With `COC1CCN(Cc2ccc(N(C)C(=O)Nc3cc(OC(C)C)c(C#N)cn3)nc2C=O)C1` (racemic) [Example 26, 3-(5-cyano-4-isopropoxypyridin-2-yl)-1-(6-formyl-5-((3-methoxypyrrolidin-1-yl)methyl)pyridin-2-yl)-1-methylurea] the IC50 [1] was 0.017 µM, the IC50 ([3]; Homo sapiens, Huh-7, 72 h) was > 3 µM and the IC50 [2] was 0.501 µM.
With `COCCNc1cc(NC(=O)N(CCOC)c2cccc(C=O)n2)ncc1C#N` [Example 3, 3-(5-cyano-4-((2-methoxyethyl)amino)pyridin-2-yl)-1-(6-formylpyridin-2-yl)-1-(2-methoxyethyl)urea] the IC50 [4] was > 10 µM, the IC50 [5] was > 10 µM and the IC50 [6] was > 10 µM.
`COCCNc1cc(NC(=O)N(C[C@H]2CCOC2)c2cccc(C=O)n2)ncc1C#N` (single isomer, unassigned) [Example 7] gave an IC50 [1] of 0.0051 µM and an IC50 [2] of 0.223 µM.
`COCCNc1cc(Nc2nccn2-c2ccc(-c3cnn(C)c3)c(C=O)n2)ncc1C(F)(F)F` [Example 27, 6-(2-((4-((2-methoxyethyl)amino)-5-(trifluoromethyl)pyridin-2-yl)amino)-1H-imidazol-1-yl)-3-(1-methyl-1H-pyrazol-4-yl)picolinaldehyde] was tested, and the IC50 [1] was 0.34 µM, the IC50 ([3]; Homo sapiens, Huh-7, 72 h) was > 3 µM and the IC50 [2] was 0.568 µM.
In the case of `COCCNc1cc(NC(=O)N(C)c2cccc(C=O)n2)ncc1C#N` [Example 2, 3-(5-cyano-4-((2-methoxyethyl)amino)pyridin-2-yl)-1-(6-formylpyridin-2-yl)-1-methylurea], the IC50 [4] is reported as > 10 µM, the IC50 [5] is reported as > 10 µM and the IC50 [6] is reported as > 10 µM.
Work on `CC(C)Oc1cc(NC(=O)N(C)c2ccc(CN3CCCC3=O)c(C=O)n2)ncc1C#N` [Example 23, 3-(5-cyano-4-isopropoxypyridin-2-yl)-1-(6-formyl-5-((2-oxopyrrolidin-1-yl)methyl)pyridin-2-yl)-1-methylurea] yielded an IC50 [1] of 0.0007 µM, an IC50 ([3]; Homo sapiens, Huh-7, 72 h) of 0.118 µM and an IC50 [2] of 0.0088 µM.
`CN(C(=O)Nc1cc(NCC(C)(C)O)c(C#N)cn1)c1ccc(-c2cnn(C)c2)c(C=O)n1` [Example 22, 3-(5-cyano-4-((2-hydroxy-2-methylpropyl)amino)pyridin-2-yl)-1-(6-formyl-5-(1-methyl-1H-pyrazol-4-yl)pyridin-2-yl)-1-methylurea] was tested, and the IC50 [1] was 0.0057 µM, the IC50 ([3]; Homo sapiens, Huh-7, 72 h) was > 3 µM and the IC50 [3] was 1.8 µM. For the same molecule, the IC50 [2] was 0.046 µM.
For `COCCNc1cc(NC(=O)N(CC2CCOC2)c2cccc(C=O)n2)ncc1C#N` (racemic) [Example 4, 3-(5-cyano-4-((2-methoxyethyl)amino)pyridin-2-yl)-1-(6-formylpyridin-2-yl)-1-((tetrahydrofuran-3-yl)methyl)urea], the IC50 [1] was 0.0019 µM, the IC50 [4] was > 10 µM and the IC50 [5] was > 10 µM. The IC50 [6] was > 10 µM and the IC50 [2] was 0.268 µM.
`CCN(C(=O)Nc1cc(OC(C)C)c(C#N)cn1)c1ccc(-c2cnn(C)c2)c(C=O)n1` [Example 12, 3-(5-cyano-4-isopropoxypyridin-2-yl)-1-ethyl-1-(6-formyl-5-(1-methyl-1H-pyrazol-4-yl)pyridin-2-yl)urea] was tested, and the IC50 [1] was 0.0086 µM, the IC50 ([3]; Homo sapiens, Huh-7, 72 h) was 2.14 µM and the IC50 [2] was 0.033 µM.
For `CC(C)Nc1cc(NC(=O)N(C)c2ccc(-c3cnn(C)c3)c(C=O)n2)ncc1C#N` [Example 14, 3-(5-cyano-4-(isopropylamino)pyridin-2-yl)-1-(6-formyl-5-(1-methyl-1H-pyrazol-4-yl)pyridin-2-yl)-1-methylurea], the IC50 [1] was 0.0036 µM.
Molecule `N#Cc1ccc(Nc2ccccc2-c2cccc(C=O)n2)nc1` [Example 1, 6-((2-(6-formylpyridin-2-yl)phenyl)amino)nicotinonitrile] has an IC50 [1] of 0.33 µM.
